Laboratory results taken from patent US11905281B2 (Amgen Inc., priority 2017, dated 2024).

What was measured:
[1] = target: GDP-bound KRAS protein (aa 1-169), containing both G12C and C118A amino acid substitutions (Homo sapiens, UniProt P01116, C118A/G12C); assay: Coupled Nucleotide Exchange Assay (Table 16 conditions: 5 min pre-incubation); type: biochemical; details: 5 min compound pre-incubation; SOS-mediated nucleotide exchange, AlphaScreen
Procedure: (§1) For compounds in Table 16, the following assay conditions were employed:
The assay plates were then read on a PerkinElmer EnVision Multilabel Reader, using AlphaScreen® technology, and data were analyzed using a 4-parameter logistic model to calculate IC50 values.

[2] = tested on: Phosphorylation of ERK1/2 in MIA PaCa-2 cells; assay: Phospho-ERK1/2 MSD Assay, MIA PaCa-2 (Table 16 conditions: 2 hours compound treatment); type: cell-based; details: MIA PaCa-2 cells, 10 ng/mL EGF for 10 min, read-out: p-ERK IC50 (MIA PaCa-2)
Procedure: as §1
Sixteen hours prior to compound treatment, MIA PaCa-2 or A549 cells were seeded in 96-well cell culture plates at a density of 25,000 cells/well and incubated at 37° C., 5% CO2. A compound dose-response titration was diluted in growth media, added to appropriate wells of a cell culture plate, and then incubated at 37° C., 5% CO2 for 2 hours. […] Phosphorylation of ERK1/2 in compound-treated lysates was assayed using Phospho-ERK1/2 Whole Cell Lysate kits (Meso Scale Discovery K151DWD) according to the manufacturer's protocol. Assay plates were read on a Meso Scale Discovery Sector Imager 6000, and data were analyzed using a 4-parameter logistic model to calculate IC50 values.

Chain of GDP-bound KRAS protein (aa 1-169), containing both G12C and C118A amino acid substitutions (P01116 1-169 isoform P01116-2 G12C/C118A): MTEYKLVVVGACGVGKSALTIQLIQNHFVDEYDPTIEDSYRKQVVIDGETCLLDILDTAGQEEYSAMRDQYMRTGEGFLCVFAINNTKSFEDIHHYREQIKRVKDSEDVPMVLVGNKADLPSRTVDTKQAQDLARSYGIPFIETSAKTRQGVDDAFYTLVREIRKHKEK

Row | SMILES | IC50 [1] [nM] | IC50 [2] [nM]
1 | C=CC(=O)N1CCN(c2nc(=O)n(-c3ccccc3C(C)(C)C)c3nc(-c4c(O)cccc4F)c(Cl)cc23)[C@@H](C)C1 (single isomer, unassigned) [Example 49-2] | 117 | 51
2 | C=CC(=O)N1CCN(c2nc(=O)n(-c3c(C)cccc3C(C)C)c3nc(-c4c(O)cccc4F)c(Cl)cc23)[C@@H](C)C1 [Example 39-1, 6-chloro-7-(2-fluoro-6-hydroxyphenyl)-1-(2-methyl-6-(2-propanyl)phenyl)-4-((2S)-2-methyl-4-(2-propenoyl)-1-piperazinyl)pyrido-[2,3-d]pyrimidin-2(1H)-one] | 25 | 28
3 | C=CC(=O)N1CCN(c2nc(=O)n(-c3c(C)cccc3C(C)C)c3nc(-c4c(O)cccc4F)c(Cl)cc23)[C@@H](C)C1 [Example 39-2, 6-chloro-7-(2-fluoro-6-hydroxyphenyl)-1-(2-methyl-6-(2-propanyl)phenyl)-4-((2S)-2-methyl-4-(2-propenoyl)-1-piperazinyl)pyrido-[2,3-d]pyrimidin-2(1H)-one] | 222 | 195
4 | C=CC(=O)N1CCN(c2nc(=O)n(-c3c(C)ccnc3C(C)C)c3nc(-c4ccccc4F)c(Cl)cc23)[C@@H](C)C1 [Example 40, 6-Chloro-7-(2-fluorophenyl)-1-(4-methyl-2-(2-propanyl)-3-pyridinyl)-4-((2S)-2-methyl-4-(2-propenoyl)-1-piperazinyl)pyrido[2,3-d]pyrimidin-2(1H)-one] | 63 | 29
5 | C=CC(=O)N1CCN(c2nc(=O)n(-c3c(C)ccnc3C(C)C)c3nc(-c4ccccc4F)c(Cl)cc23)[C@@H](C)C1 [Example 40-1, 6-chloro-7-(2-fluoro-phenyl)-1-(4-methyl-2-(2-propanyl)-3-pyridinyl)-4-((2S)-2-methyl-4-(2-propenoyl)-1-piperazinyl)pyrido-[2,3-d]pyrimidin-2(1H)-one] | 57 | 22
6 | C=CC(=O)N1CCN(c2nc(=O)n(-c3c(C)ccnc3C(C)C)c3nc(-c4ccccc4F)c(Cl)cc23)[C@@H](C)C1 [Example 40-2, 6-chloro-7-(2-fluoro-phenyl)-1-(4-methyl-2-(2-propanyl)-3-pyridinyl)-4-((2S)-2-methyl-4-(2-propenoyl)-1-piperazinyl)pyrido-[2,3-d]pyrimidin-2(1H)-one] | 597 | 321
7 | C=CC(=O)N1CCN(c2nc(=O)n(-c3c(C)ccnc3C3CC3)c3nc(-c4c(O)cccc4F)c(F)cc23)[C@@H](C)C1 [Example 42, 1-(2-Cyclopropyl-4-methyl-3-pyridinyl)-6-fluoro-7-(2-fluoro-6-hydroxyphenyl)-4-((2S)-2-methyl-4-(2-propenoyl)-1-piperazinyl)pyrido[2,3-d]pyrimidin-2(1H)-one] | 335 | 362

Next, values leading:

Row | IC50 [1] [nM] | IC50 [2] [nM] | SMILES
8 | 727 | 435 | C=CC(=O)N1CCN(c2nc(=O)n(-c3c(C)ccnc3C3CC3)c3nc(-c4ccccc4F)c(Cl)cc23)[C@@H](C)C1 (single isomer, unassigned) [Example 45-2]
9 | 98 | 93 | C=CC(=O)N1CCN(c2nc(=O)n(-c3c(C)cnn3C(C)C)c3nc(-c4ccccc4F)c(Cl)cc23)[C@@H](C)C1 (single isomer, unassigned) [Example 53-1]
10 | 320 | 229 | C=CC(=O)N1CCN(c2nc(=O)n(-c3c(C)cnn3C(C)C)c3nc(-c4ccccc4F)c(Cl)cc23)[C@@H](C)C1 (single isomer, unassigned) [Example 53-2]
11 | 150 | 103 | C=CC(=O)N1CCN(c2nc(=O)n(-c3c(C)ccnc3C3CC3)c3nc(-c4c(O)cccc4F)c(F)cc23)[C@@H](C)C1 [Example 42-1, 1-(2-cyclopropyl-4-methyl-3-pyridinyl)-6-fluoro-7-(2-fluoro-6-hydroxyphenyl)-4-((2S)-2-methyl-4-(2-propenoyl)-1-piperazinyl)pyrido-[2,3-d]pyrimidin-2(1H)-one]
